Source: patent US7196063B1, “Peptides and pharmaceutical compositions comprising same” (NST NeuroSurvival Technologies Ltd., priority 1999, dated 2007)
“Also recorded” adds a separate entry of the source. Like-named read-outs stand apart in the source and are kept apart here.

Key:
apoptotic hepatocytes = assay type: in vivo, mice; conditions: data not shown
Protocol: Massive hepatic apoptosis can be induced within 1–2 hr in mice following intravenous injection of anti-Fas antibody (Ogasawara J. et al., 1993, Nature, 364, 806–809). […] Five-weeks-old male BALB/c mice were injected intravenously with 10 μg/animal of purified hamster anti-Fas mAb (Jo2, PharMingen, San Diego, Calif.) using the model described by Ogasawara et. al. (Nature, 1993, 364, 806–809). […] Injections were performed at different time intervals between 5 min–2 hr after antibody treatment. […] All animals were killed 2 hr after administration of antibody followed by organ removal. Heart, lung and liver were collected. Liver were sectioned transversely across the mid-portion of each lobe; organs were fixed in phosphate-buffered formalin for histological and immunohisto-chemical analyses.
Formalin fixed paraffin-embedded tissues were sectioned (5 μm) for staining with Hematoxylin/Eosin or other techniques. Endogenous peroxidase activity was blocked by incubation with 3% H2O2.
After washing with PBS, staining was developed with 3,3-diaminobenzidine tetrahydrochloride (DAB), and counterstained with Hematoxylin.
Liver sections from different lobes were used for detection of stained apoptotic cells compared to normal cells. Using light microscopy (×400), twenty fields of stained cells were evaluated. A ratio between the number of stained apoptotic hepatocytes versus stained normal hepatocytes in the field was defined. The stained cell's score (%) corresponds to the mean of the values for the twenty evaluated fields.
The percentage of apoptotic cells in the fields was estimated by evaluating parallel sections stained with Hematoxylin/Eosin. Analysis was performed blindly, since the pathologist performing the histological evaluation was unaware of the assignment of mice to the treatment or control group.
To quantitate the microscopic examination of the pharmacokinetics studies, the number of stained cells from 20 microscopic fields was counted.

[1] = within 5 minutes; rabbits; intravenous injection; cited from earlier work
arterial thrombosis = conditions: intravenous administration; carotid artery injury model; cited from earlier work
HUVEC cells [2] = test: Thrombin generation by HUVEC cells; assay type: cell-based, Human
From the text: In vivo, vascular endothelial cells are known to catalyze the formation of thrombin, due to expression of PS on their plasma membrane, at which pro-coagulant complexes are assembled (Van Hardee W L et al., 1994, Biochem J. 302, 305–312). Endothelial cells (EC) play an active role in determining the pro-coagulant/anti-coagulant balance in the vascular system (Gimborne M A et al., 1995, Ann. N. Y. Acad Sci 748, 122–132). Perturbed endothelial cells dramatically increase their pro-coagulant state. […] (FIG. 4D). When HUVEC cells (1.5×10^5) were incubated with the S-2366 substrate, thrombin generation was evident after a lag time of 12.5 minutes, which reflects the time required to assemble a functional complex on the HUVEC surface.
The effect of NST516 compound on HUVEC mediated-thrombin generation was studied.

HUVEC cells [3] = test: Binding to endothelial HUVEC cells by FACS analysis; assay type: cell-based, Human; conditions: 250 μM
Protocol: Binding detection was done using flow cytometric analysis to populations of HUVEC cells.
HUVEC (CC-2517, obtained from Clonetics, Walkersville, Md.) were grown on tissue culture flasks in Endothelial cell medium (EGM-2 Bulletkit, CC 3162, Clonetics). Mid-confluent cultures were harvested using Trypsine/EDTA solution (CC-5012, Clonetics). The cells were rinsed twice with TBS containing 2% BSA and kept on ice. Samples of 10^6 cells were tested for binding.
Cells were washed in 1 ml of TBS-BSA and centrifuged as before and then suspended in 100 μl of TBS-BSA containing streptavidin conjugated to fluorescein (FITC) for detection of the bound biotinylated compound. […] Thereafter, 400 μl of TBS-BSA were added and cells were entrifuged and re-suspended in 400 μl of TBS and taken for FACS analysis.

apoptotic HeLa cells [4] = conditions: 250 μM; FACS
Protocol: Detection of binding to apoptotic HeLa cells was performed according to the following procedure: Cells were plated on tissue culture plates at a density of 5×10^6 cells/10 cm dish, and grown in their normal medium at 37° C. for 18 hr. The medium was replaced with a medium containing 2% FCS and 500 μM of dopamine. Eighteen hours later, floating cells that were identified as advanced apoptotic cells were collected and transferred to a 50 ml tube. To evaluate the level of apoptosis in the cultures, aliquots of 10^5 cells from the cultures were plated on 48 wells plate and stained with Hoechst 33342 dye (Molecular Probes) at a concentration of 1 mg/ml for 20 min (as described above). Non-treated cells served as control. For collecting the non-treated cells, the medium of the culture was aspirated and discarded, the cells were rinsed with growing medium and 2 ml of medium were added to the culture dish. The cells were detached from the culture dish using a cell scraper and separated to single cells by passage through a syringe with a 18G needle.
The reactions were incubated at room temperature for 40 minutes and then 400 μl of TBS was added and cells were collected by centrifugation at 3000×g for 3 minutes. Cells were washed in 1 ml of TBS and centrifuged as before and detecting of the bound compound was performed using 100 μl of TBS containing streptavidin conjugated to fluorescein (FITC) (016-090-084 from Jackson ImmunoResearch lab. Inc.). Incubation was for 15 minutes at room temperature in the dark. Thereafter, 400 μl of TBS was added and cells were centrifuged and washed again with 1 ml of TBS as before, re-suspended in 400 μl of TBS and then taken for FACS analysis. The FACS analysis was performed on Beckton-Dickinson cell sorter, using lysis II software. Excitation was at 488 nm and emission for FITC detection was at 535 nm and for PI detection at 585 nm.

cardiolipin = tested on: cardiolipin
From the text: The antiphospholipid antibody syndrom (APS) is a thrombophilic condition, characterized by a panel of antibodies that recognize anionic phospholipid-protein cofactor complexes. The antiphospholipid antibodies lupus anticoagulant and anticardiolipin, (present in high concentrations in SLE patients), are associated with several medical disorders including artherial and venous thrombosis, and recurrent pregnancy loss (Rand J H et al., 1998, Blood. 92, 1652–1660). […] Noncellular negatively charged phospholipid coated surface (cardiolipin) were chosen as a target for binding.
CL, (Diphosphatidylglycerol, c-1649, Sigma), prepared at 50 μg/ml in ethanol, was added to a 96 well plate (100 μl/well) using Immunolon 4 plates (Dynatech, Chantilly, Va.) and incubated for 16–20 hr for evaporation of ethanol. As control, wells were coated with ethanol only. The coated plates were washed 3 times with 100 μl of blocking buffer (PBS containing 0.3% gelatin (Sigma) and 1 mM EDTA) to block non specific binding. A 5 min incubation time was used between each wash. Normal plasma (Ilex, Italy, 84670-11) and plasma derived from SLE patients (either from Gradipore, Australia, LAHP-1, or from Biopool, Ventura, Calif.) were prepared according to the producer's instruction. The plasma was diluted 1/10 in the blocking buffer and was added to the CL and ethanol coated wells. […] Following 3 hr incubation, the plates were washed twice with PBS/BSA buffer (0.4% bovine serum albumine (BSA) in PBS). For detection of anti cardiolipin binding property of the tested plasma, the plates were incubated with a 1/10000 dilution of Peroxidase-conjugated affinity purified Goat anti-human IgG (Jackson Immunoresearch lab.) in PBS/BSA buffer for 1 hour. The plates were then washed 3 times with PBS/BSA buffer, and color reaction was developed by incubation with 100 ul of 0-phenylenedi-amine (OPD) dihydrochloride (Sigma p-7288) at a concentration of 0.4 mg/ml in 0.05 M phosphate citrate buffer, pH 5.0 supplemented with 4 ul of 30% hydrogen peroxide (Aldrich) for 10 ml mixture. To detect the level of NST500 compounds that were bound to CL, parallel wells were incubated with streptavidin conugated to OPD (SA-OPD, Jackson Immunoresearch lab.), that specifically recognize the biotinylated NST 500 compounds. The resulting colour changes were recorded at 405 nm using a Bio Tek Elx800 Eliza reader.

HUVEC cells [5] = test: Cell-ELISA: binding of anti β2GPI antibodies to HUVEC cells; assay type: cell-based, Human
Protocol: Human β2GPI is a plasma phospholipid binding protein that is required for the binding of autoantibodies in sera from patients with APS to cardiolipin (McNeil H P et al., 1990 Proc. Natl. Acad. Sci. 87, 4120–4124). […] Anti β2GPI antibodies are present in sera of APS patients. […] For cell-ELISA tests, HUVEC cells (at 40,000/well), were plated on 96 well tissue culture plates (Nunc) in 200 μl of the culture medium, and allowed to grow for 18–22 hours. Following 2 washes with Hepes buffer (10 mM Hepes pH 8, 140 mM NaCl) and 5 min incubation with the culture medium, the wells were incubated for 3 hr with 10% of normal plasma in PBS (as a source of β2 GPI protein), supplemented with 1/500 of goat anti-human Apolipoprotein-H (β2 GPI) (Affinity biologicals, PA). Parallel control wells were incubated with 10% of normal plasma from Ilex. Serial dilutions of NST500 compounds were prepared in plasma/PBS. Washes and development were as described for anti CL ELISA.
As presented in FIG. 5B, in the presence of plasma and absence of NST500, HUVEC cells supported binding of anti β2GPI to their surface. However, displacement of anti β2GPI by NST500 compounds in this system occurred in a concentration dependent manner, similar to the results obtained with CL.

apoptotic HeLa cells [6] = test: Modified APTT test with apoptotic HeLa cells as pro-coagulant surface; assay type: cell-based
Protocol: Apoptotic and control HeLa cells were prepared as described for the FACS analysis. Equal numbers of apoptotic or control non-treated cells (5×10^4) in a volume of […], were mixed with 100 μl of normal plasma, incubated for 1 min at 37° C. in a bath and then calcified by addition of 100 μl of 25 mM CaCl2, and clotting time was measured. Inhibition of the pro-coagulant activity of the apoptotic cells by NST500 compounds was tested following pre-incubation of apoptotic cells for 20 min. at room temperature with increased concentrations of the different NST 500 compounds.
The results can be seen in FIG. 4B.

Row | Substance | staining of apoptotic cells, exogenously added (apoptotic hepatocytes) | clearance [1] [%] | inhibition of arterial thrombosis (arterial thrombosis) | delay in thrombin generation (HUVEC cells [2]) [min] | potency in inhibiting thrombin generation compared to NST513 (HUVEC cells [2]) | thrombin generation by HUVEC cells, dose response (HUVEC cells [2]) | fraction of HUVEC cells labeled (HUVEC cells [3]) [%] | higher FITC labeled HUVEC cells as compared to NST513 (HUVEC cells [3]) [%] | increase in labeled HUVEC cells as compared to background of control cells without compound (HUVEC cells [3]) [fold] | binding to apoptotic HeLa cells relative to NST513 (apoptotic HeLa cells [4]) [fold] | potency relative to NST513 in inhibiting binding of SLE plasma to CL (cardiolipin) [times] | displacement of plasma derived from SLE patients from cardiolipin (cardiolipin; 1 μM) | lowering of binding of plasma derived from SLE patients to CL (factor) (cardiolipin; 1 μM) | displacement of plasma derived from SLE patients from cardiolipin (cardiolipin; 10 μM) | inhibition of binding of plasma derived from SLE patients to cardiolipin, dose response (cardiolipin; 1–10 μM) | blocking of binding of anti β2 GPI antibodies to HUVEC cells (HUVEC cells [5]) | inhibiting activity relative to NST513 (HUVEC cells [5]) | effect on clotting time of apoptotic cells (apoptotic HeLa cells [6]; 2.5–2.2 μM) | increase of clotting time of apoptotic cells (factor) (apoptotic HeLa cells [6]; 2.5–2.2 μM) [times] | clotting time of apoptotic cells (apoptotic HeLa cells [6]; apoptotic cells alone 50 seconds, control cells 80 seconds) [s]
1 | Annexin V: 320 amino acid protein of the annexin family with Ca2+-dependent binding to anionic phospholipid membranes | same pattern of staining | 90 | effectively achieved |  |  |  |  |  |  |  |  |  |  |  |  |  |  |  |  | 
2 | Myristate-KKVSFFCKNKEKKC-K(SEQ ID NO:2) (biotin) [NST516] |  |  |  | 5 | more potent compound in inhibiting thrombin generation | dose dependence inhibition of thrombin generation | 83 | 70 | 8 | 3.5 | 10 | marked displacement | 2 | almost complete displacement | marked displacement of IgG | dramatic and significant ability to block binding | two times better | marked and dose dependent inhibition of clotting time; also recorded: dose-dependent effect | 4.5 | 225
